Measurements from patent publication US10889579B2, “Thiazine derivatives as β-secretase inhibitors and methods of use” (AMGEN INC., priority 2016, dated 2021).
Blank lines part the entries; values can stand above or below the molecule they belong to.

Assays:
[1] = molecular target: human recombinant BACE2 (Homo sapiens (Human), UniProt Q9Y5Z0); experiment: In vitro enzymatic BACE2 FRET assay; type: biochemical; conditions: pH 4.5, 1 h pre-incubation, read-out: BACE2 Enzyme IC50
Experimental: (§1) In Vitro Enzymatic BACE1 and BACE2 FRET (Fluorescence Resonance Energy Transfer) Assays
(§2) The cDNAs for both human recombinant BACE1 and 2 with C-terminal 6-His Tags were cloned into transient protein expression vectors, which were subsequently transfected into mammalian cell lines. These recombinant proteins were further purified using Ni-NTA affinity chromatography (Qiagen). The assay buffer used in these screens was 0.05 M acetate, pH 4.5, 8% DMSO final, 100 μM genapol (which is a nonionic detergent, below its Critical Micelle Concentration). The β-secretase enzyme (0.02 nM for BACE1 and 0.64 nM for BACE2), which was pre-incubated for one hour with the test compound, typically in about luL of DMSO according to a serial dilution, was added thereto. The assay was effectively started by the addition of FRET substrate (50 nM) and the combination was incubated for one hour. The FRET assay was terminated by the addition of tris buffer, which raised the pH to neutrality, and the fluorescence was determined. The FRET substrate was a peptide with commercially available fluorophore and quencher, on opposite sides of the BACE cleavage site. The specific FRET substrate used in this assay was made by Amgen in-house. Commercially available FRET substrates, for example, the FRET substrate offered with the BACE1 FRET Assay Kit sold by ThermoFisher Scientific (Catalog Number P2985), may be used in this assay with the appropriate modifications, which are within the purview of the ability of a person with ordinary skill in the art. Proteolytic cleavage of the FRET substrate released quenching of fluorescence (excitation 488 nm and emission 590 nm).

[2] = molecular target: Recombinant CatD (Homo sapiens (Human), UniProt P07339); experiment: In vitro enzymatic Cathepsin D (CatD) FRET assay; type: biochemical; conditions: pH 3.5, 1 h pre-incubation, read-out: Cat D Enzyme IC50
Experimental: In Vitro Enzymatic Cathepsin D (CatD) FRET Assay Recombinant CatD was expressed in CHO cells. The assay buffer for CatD was 0.05 M citrate pH 3.5, 10% DMSO final, 5 mM CHAPS. The CatD enzyme (9 nM) was pre-incubated for one hour with inhibitors, typically in about luL of DMSO according to a serial dilution, is added thereto. The assays was effectively started by the addition of different FRET substrates (20 nM for CatD) and the combination was incubated for one hour. The FRET assay was terminated with by addition of tris buffer, which raises the pH to neutrality, and the fluorescence was determined. The FRET substrate was a peptide with commercially available fluorophore and quencher, on opposite sides of the CatD cleavage site. The CatD substrate peptide sequence was based on sequence #1 of Table 1 from Gulnik et al., FEBS Lett. 413(2):379-384 (1997). Proteolytic cleavage of the FRET substrate released quenching of fluorescence (CatD excitation 500 nm and emission 580 nm). The in vitro CatD FRET assay data for each of the Examples is provided in Table 2, conducted by the first procedure described above. […] Thus, with this surprising selectivity profile, the compounds provided herein are believed to minimize, reduce or completely eliminate any risk of retinal atrophy and abnormal development of the eye and of the retinal pigmented epithelium as it relates to the normal function and activity of CatD.

[3] = molecular target: T1, BACE1 (Homo sapiens (Human), UniProt P56817); experiment: In vitro enzymatic BACE1 FRET assay; type: biochemical; conditions: pH 4.5, 1 h pre-incubation, read-out: BACE1 Enzyme IC50
Experimental: as §1, §2
Target sequence in this assay (P56817 46-501): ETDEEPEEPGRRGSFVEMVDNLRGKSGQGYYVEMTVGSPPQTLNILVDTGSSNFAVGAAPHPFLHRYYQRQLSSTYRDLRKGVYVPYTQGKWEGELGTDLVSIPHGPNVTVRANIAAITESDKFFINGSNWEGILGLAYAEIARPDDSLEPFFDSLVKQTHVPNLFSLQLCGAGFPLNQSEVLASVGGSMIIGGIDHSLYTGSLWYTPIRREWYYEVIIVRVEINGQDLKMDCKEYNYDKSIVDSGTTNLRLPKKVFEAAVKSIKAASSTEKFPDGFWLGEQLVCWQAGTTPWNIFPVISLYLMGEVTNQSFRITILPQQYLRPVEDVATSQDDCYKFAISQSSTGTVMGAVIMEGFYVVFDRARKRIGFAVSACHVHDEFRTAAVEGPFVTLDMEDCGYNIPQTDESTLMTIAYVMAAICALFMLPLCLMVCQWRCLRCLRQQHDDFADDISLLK

[4] = molecular target: T1, BACE1; experiment: In vitro BACE1 cell-based assay (Aβ40 in conditioned medium, HTRF); conditions: Aβ40 in conditioned medium of cells stably expressing APP, 24 h
Experimental: In Vitro BACE1 Cell-Based Assay
The cell-based assay measures inhibition or reduction of Aβ40 in conditioned medium of test compound treated cells expressing amyloid precursor protein. Cells stably expressing Amyloid Precursor Protein (APP) were plated at a density of 45K cells/well in 384 well plates (Corning/BioCoat 354663). The test compounds were then added to cells in 22-point dose response concentrations with the starting concentration being 62.5 μM. The compounds were diluted from stock solutions in DMSO and the final DMSO concentration of the test compounds on cells was 0.625%. The cells were cultivated overnight at 37° C. and 5% CO2 in DMEM supplemented with 10% FBS. After 24 h of incubation with the test compounds, the conditioned media was collected and the Aβ40 levels were determined using HTRF (Homogeneous Time Resolved Fluorescence). The IC50 of the compound was calculated from the percent of control or percent inhibition of Aβ 40 as a function of the concentration of the test compound.
The HTRF to detect Aβ40 was performed in 384 well plates (Costar 3658). The antibody pair that were used to detect Aβ 40 from cell supernatants were ConfAb40 antibody (Amgen in-house) and biotinylated 6E10 (BIOLEGEND). As an alternative to ConfAb40, a commercially available antibody, Anti-beta Amyloid 1-40 antibody [BDI350] from Abcam, Cambridge, Mass. 02139-1517 (Product code: ab20068), may be used in this assay. The concentrations were 0.35 μg/mL of ConfAb40 antibody and 1.33 μg/mL of 6E10-biotinylated antibody, as well as 4.5 μg/mL of Streptavidin Allophycocyanin Conjugate (ThermoFisher Scientific) in HTRF Buffer (1M Hepes pH 7.5, 1M NaCL, 1% BSA, 0.5% Tween 20).
The conditioned media was incubated with above antibodies and Streptavidin Allophycocyanin Conjugate for 30-60 minutes at 23° C. The final readout was performed on Envision from PerkinElmer.
Target sequence in this assay (P56817 46-501, species assumed): as the sequence (P56817 46-501) above

[5] = tested on: Aβ peptide levels in the CSF and plasma; conditions: nonhuman primates; cited from earlier work
[6] = repeated doses up to 200 mg, phase I clinical trial; cited from earlier work
[7] = tested on: Aβ peptide in CSF; conditions: cited from earlier work
[8] = in vivo; cited from earlier work
[9] = tested on: pigment epithelium of the rat's eye; conditions: higher compound dose given for three months; cited from earlier work
[10] = tested on: CSF Aβ peptide concentrations; conditions: sustained and dose-dependent manner; cited from earlier work
[11] = phase I clinical trials; cited from earlier work

Sequence of human recombinant BACE2 (Q9Y5Z0 63-518): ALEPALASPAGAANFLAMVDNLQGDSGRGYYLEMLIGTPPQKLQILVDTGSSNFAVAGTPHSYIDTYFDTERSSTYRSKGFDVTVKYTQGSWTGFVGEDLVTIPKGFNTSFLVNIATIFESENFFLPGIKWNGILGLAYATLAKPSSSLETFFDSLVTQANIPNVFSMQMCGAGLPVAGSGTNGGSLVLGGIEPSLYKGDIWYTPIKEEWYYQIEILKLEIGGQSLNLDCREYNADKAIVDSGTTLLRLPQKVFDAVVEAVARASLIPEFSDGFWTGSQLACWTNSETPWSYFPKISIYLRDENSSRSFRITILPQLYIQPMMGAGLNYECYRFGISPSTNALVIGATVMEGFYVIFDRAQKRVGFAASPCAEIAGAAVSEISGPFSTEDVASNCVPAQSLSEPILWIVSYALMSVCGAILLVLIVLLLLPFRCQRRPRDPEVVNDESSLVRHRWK
Sequence of Recombinant CatD (P07339 65-412): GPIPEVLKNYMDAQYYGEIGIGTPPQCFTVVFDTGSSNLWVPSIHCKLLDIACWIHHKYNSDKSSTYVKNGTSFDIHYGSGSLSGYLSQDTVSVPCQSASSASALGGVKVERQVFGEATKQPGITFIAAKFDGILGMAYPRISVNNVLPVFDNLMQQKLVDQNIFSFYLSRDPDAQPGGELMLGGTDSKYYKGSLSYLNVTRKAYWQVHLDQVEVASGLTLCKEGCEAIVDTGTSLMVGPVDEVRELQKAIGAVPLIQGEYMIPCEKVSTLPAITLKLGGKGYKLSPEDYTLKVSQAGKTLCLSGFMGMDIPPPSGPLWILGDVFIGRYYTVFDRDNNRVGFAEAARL

IC50 [1]: 0.56 µM
IC50 [2]: 68.6 µM
IC50 [3]: 0.025 µM
IC50 [4]: 0.01 µM
Compound: CNC(=O)[C@]1(C)C[C@@](C)(c2cc(/C=C(\F)c3ccc(C#N)cn3)ccc2F)N=C(N)S1 [Example 116, (4S,6S)-2-amino-4-(5-((Z)-2-(5-cyanopyridin-2-yl)-2-fluorovinyl)-2-fluorophenyl)-N,4,6-trimethyl-5,6-dihydro-4H-1,3-thiazine-6-carboxamide]

Compound: C[C@H]1OC[C@]2(c3cc(NC(=O)c4cnc(C(F)F)cn4)ccc3F)N=C(N)SC[C@H]12 [Example E2609]
reduction in Aβ peptide levels in the CSF and plasma [5]: significant reduction
clinical safety [6]: did not show clinical significant safety concerns

Compound: C[C@@]1(c2cc(NC(=O)c3ccc(C#N)cn3)ccc2F)C=CSC(N)=N1 [JNJ-54861911]
reduction of Aβ peptide concentrations ([7]; in vivo): dose-dependently reduce Aβ peptide concentrations
Aβ peptide reduction in CSF ([7]; oral dose of 95 mg once daily): up to 95%
ability to cross the blood-brain barrier [8]: demonstrated an ability to cross the blood-brain barrier

Compound: C[C@@]1(c2cc(-c3cncnc3)c(F)cc2F)CCSC(N)=N1 [LY 2811376]
eye toxicity finding [9]: damaged the pigment epithelium of the rat's eye

Compound: CN1C(=N)N[C@](C)(c2cc(NC(=O)c3ccc(F)cn3)ccc2F)CS1(=O)=O [MK-8931]
CSF Aβ peptide concentrations [10]: significantly reduced
safety profile [11]: excellent safety profile with no immediately noticeable side effects
